Literature values as cited in patent US11311621B2, “Organosilicon compound microparticles and process for their preparation” (SILICIUM ESPAÑA LABORATORIOS, S.L., priority 2018, dated 2022).

Conditions: 21° C., without irreversible polymerization after 2 months

## monomethylsilanetriol [MMST]
  solubility of MMST in water without irreversible polymerization: up to 21 mM
  solubility of MMST in water without irreversible polymerization (as silicon): ≤ 588 mg Si/L
